Molecular target: LSD1 (Homo sapiens (Human), UniProt O60341)
Experiment: biochemical
Protocol: LANCE LSD1/KDM1A demethylase assay—10 μL of 1 nM LSD-1 enzyme (ENZO BML-SE544-0050) in the assay buffer (50 mM Tris, pH 7.5, 0.01% Tween-20, 25 mM NaCl, 5 mM DTT) were preincubated for 1 hour at 25° C. with 0.8 μL compound/DMSO dotted in black 384 well polystyrene plates. […] After stopping the reactions plates were incubated for 30 minutes and read on a PHERAstar FS plate reader (BMG Labtech).

Compound | IC50 [nM]
N#Cc1ccc(CC2(CN[C@@H]3C[C@H]3c3ccccc3)CCN(CC3(C(=O)O)CC3)CC2)c(F)c1 [Example 74, 1-{[4-(4-cyano-2-fluorobenzyl)-4-({[(1R,2S)-2-phenylcyclopropyl]amino}methyl)piperidin-1-yl]methyl}cyclopropanecarboxylic Acid] | < 100
COCC1(CN[C@@H]2C[C@H]2c2ccccc2)CCN(C(=O)N2CCC(O)CC2)CC1 [Example 112, 1-{[4-(methoxymethyl)-4-({[(1R,2S)-2-phenylcyclopropyl]amino}methyl)piperidin-1-yl]carbonyl}piperidin-4-ol] | < 100

Source: patent US10717737B2, “Cyclopropylamines as LSD1 inhibitors” (Incyte Corporation, priority 2014, dated 2020)
